The target of data set [1] is defatted human serum albumin (Sigma albumin) (Homo sapiens, UniProt P02768). Kind of data set: Drug binding by ultrafiltration in Sigma albumin solution. The conditions noted are these: isolated protein, pH 7.4.
For data set [2], the target named is in-process albumin (Octapharma, before addition of stabilisers and final heating) (Homo sapiens, UniProt P02768). The data set is described as follows: Drug binding by ultrafiltration in in-process albumin from Octapharma. As to conditions: mean (SD), 5 experiments.
Chain of in-process albumin (Octapharma, before addition of stabilisers and final heating) (P02768 25-609): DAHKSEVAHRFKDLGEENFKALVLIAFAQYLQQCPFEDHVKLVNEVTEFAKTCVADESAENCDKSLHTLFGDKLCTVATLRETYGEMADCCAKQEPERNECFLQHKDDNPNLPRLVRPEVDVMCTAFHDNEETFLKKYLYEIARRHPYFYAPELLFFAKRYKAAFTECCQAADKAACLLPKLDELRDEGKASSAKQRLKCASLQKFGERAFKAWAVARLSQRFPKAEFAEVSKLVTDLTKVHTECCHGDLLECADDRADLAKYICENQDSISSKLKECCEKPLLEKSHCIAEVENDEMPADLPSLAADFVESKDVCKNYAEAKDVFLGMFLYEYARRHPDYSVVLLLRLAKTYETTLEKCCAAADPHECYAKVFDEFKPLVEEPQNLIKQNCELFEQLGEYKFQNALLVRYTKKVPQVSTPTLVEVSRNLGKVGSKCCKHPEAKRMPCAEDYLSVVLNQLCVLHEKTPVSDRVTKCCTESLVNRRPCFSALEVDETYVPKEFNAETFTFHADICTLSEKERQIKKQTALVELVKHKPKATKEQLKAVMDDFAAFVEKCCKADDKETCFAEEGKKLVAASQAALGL
In data set [3] the target is Pharmaceutical-grade albumin Baxter/Immuno (Homo sapiens, UniProt P02768).
Chain of Pharmaceutical-grade albumin Baxter/Immuno (P02768 25-609): as above
Data set [4] deals with albumin solutions from Baxter/Immuno, Octapharma, and Pharmacia & Upjohn (Homo sapiens, UniProt P02768).
Chain of albumin solutions from Baxter/Immuno, Octapharma, and Pharmacia & Upjohn (P02768 25-609): as above
The target in data set [5] is Pharmaceutical-grade albumin Pharmacia & Upjohn (Homo sapiens, UniProt P02768).
Chain of Pharmaceutical-grade albumin Pharmacia & Upjohn (P02768 25-609): as above
The target of data set [6] is Sigma albumin and native human serum (Homo sapiens, UniProt P02768). As to conditions: relative to K1 of naproxen; summary of Table 2.
Chain of Sigma albumin and native human serum (P02768 25-609): as above
Data set [7] deals with Pharmaceutical-grade albumin Octapharma (Homo sapiens, UniProt P02768). Kind of data set: Drug binding by ultrafiltration in pharmaceutical-grade albumin from Octapharma. The conditions noted are these: for n1 (specific binding sites): Final product.
Chain of Pharmaceutical-grade albumin Octapharma (P02768 25-609): as above
Another data set concerns albumin. The conditions noted are these: cited from earlier work.
The target of a further data set is Human serum (Homo sapiens, UniProt P02768). The data set is described as follows: Drug binding by ultrafiltration in native human serum.
Chain of Human serum (P02768 25-609): as above
Where [8] appears, read: Baxter/Immuno albumin 0.615 mmol/L, Scatchard, mean (SD), 5 experiments.
Setting [9] is: human, isolated protein, pH 7.4.
Where [10] appears, read: Pharmacia & Upjohn albumin 0.615 mmol/L, Scatchard, mean (SD), 5 experiments.
The mark [11] stands for this setting: charcoal treated, mean (SD), 5 experiments.
Setting [12] is: Octapharma albumin 0.615 mmol/L, Scatchard, mean (SD), 5 experiments.
[13] abbreviates: human serum, Scatchard, mean (SD), 5 experiments.

Chain of defatted human serum albumin (Sigma albumin) (P02768 25-609): as above

A word on the fraction unbound: it is free concentration divided by total concentration. As to `C[C@H]1O[C@@H](O[C@H]2[C@@H](O)C[C@H](O[C@H]3[C@@H](O)C[C@H](O[C@H]4CC[C@@]5(C)[C@H](CC[C@@H]6[C@@H]5CC[C@]5(C)[C@@H](C7=CC(=O)OC7)CC[C@]65O)C4)O[C@@H]3C)O[C@@H]2C)C[C@H](O)[C@@H]1O` [Digitoxin, digitoxin], the fraction unbound at 30 min was 0.051 in [1]; 0.111 in data set [3] (setting [9]); 0.115 in data set [5] (setting [9]); 0.1 in data set [7] (setting [9]); 0.049 on Human serum (human, serum, pH 7.4). Moreover, the “n1 (specific binding sites)” value in [2] (charcoal treated) is recorded as 0.8 (0.03); in data set [2] (not charcoal treated), 0.8 (0.03); in data set [7] (setting [11]), 1.3 (0.2); in data set [7] (not charcoal treated, mean (SD), 5 experiments), 1.1 (0.1). Also, the “Specific binding n1 (number of binding sites)” value is 1.1 (0.1) in data set [3] (setting [8]), 1.4 (0.3) in [5] (setting [10]), 0.9 (0.03) in data set [7] (setting [12]) and 1.8 (0.5) on Human serum (setting [13]). Besides, the “free fraction higher than in native human serum and Sigma albumin” value in data set [4] (pharmaceutical-grade albumins versus native human serum and Sigma albumin) is on record as ~2 times. In addition, the “K1 higher than that of naproxen” value in data set [6] is reported as ~100 times. Moreover, the albumin-bound result in the data set on albumin was “more than 95%”.

As to `COc1ccc2cc([C@H](C)C(=O)O)ccc2c1` [Naproxen, naproxen], the “Non Specific binding n2 (number of binding sites)” value in data set [3] (setting [8]) is 3.8 (0.2); in [5] (setting [10]) it was 3.8 (0.3); in [7] (setting [12]), 4.0 (0.3); at Human serum (setting [13]), 3.9 (0.2). In [4] (albumin solutions from Baxter/Immuno, Octapharma, and Pharmacia & Upjohn), the specific binding entry is “abolished”. Further, the “n1 (specific binding sites)” value in data set [7] (setting [11]) is given as 1.1 (0.1); in [7] (charcoal treated, mean (SD), 5 experiments, listed as naproxen), 1.1 ± 0.1. In addition, at Human serum (setting [13]), the “Specific binding n1 (number of binding sites)” value is on record as 1.0 (0.1).
